Results: patent publication US20110262395A1, “SENSORY RECEPTORS FOR CHRONIC FATIGUE AND PAIN AND USES THEREOF” (UNIVERSITY OF UTAH RESEARCH FOUNDATION, priority 2008, published 2011)
Where “and” joins values, the source holds several entries; their conditions need not be identical. Identical values can stand only once. Entries after “also recorded” stand apart in the source; their conditions may differ.

What was measured:
DRG neurons [1] = experiment: Calcium imaging of cultured DRG neurons: antagonist effects on responses to capsaicin, ATP or KCl (selectivity control); assay type: cell-based, mouse
Excerpt: (§1) Harvesting/culturing cells/loading cells: Thirty-nine three week old (4 wells of DRG neurons plated from each mouse), C57Bl/6 mice were anesthetized with isoflurane, and euthanized by cervical dislocation. Dorsal root ganglia (DRG) from lumbar regions were removed into HBSS, treated with trypsin, washed with MEM (Invitrogen 51200-038) containing 10% FBS (Hyclone), 2.4% glucose, 1% glutamax (Invitrogen 35050-061) and 1% penicillin/streptomycin (Atlanta Biological B2110). DRG were triturated, pre-plated and incubated at 37° C. for one hour to reduce non-neuronal cells. Neurons were gently swirled and centrifuged (110×g, 5 min). Cells were removed, re-suspended and 30 μL plated onto the 4 center wells of 24-well plates coated with poly-L-lysine and laminin. A 0.5 mm thick silicone ring with a 4 mm diameter opening sealed to the surface of each well reduced the plating area in each well. Following 1 hour, wells were filled with 37° C. culture medium with 10 ng/mL GDNF (Glial Derived Neurotrophic Factor) (Preprotech 450-10). Sixteen to 23 hours after plating, cultures were loaded with Fura-2 AM (Molecular Probes F-1221) fluorescent dye for 40-60 minutes, then washed with pH 7.4 oxygenated observation medium containing no additional ATP (145 mM NaCl, 5 mM KCl, 2 mM CaCl2, 1 mM MgCl2, 1 mM Citrate, 10 mM glucose, 10 mM MES, 10 mM HEPES). The final well volume was 500 μL.
(§2) JYL-1422, LJO-328, A-317567, and a selected stereo isomer of A-317567 were each dissolved in 5% DMSO/95% water and a few μL of 1M HCl to a concentration of 10 mM, then quick frozen and stored at −20° C. Aliquots of antagonists were thawed and diluted to the appropriate concentrations just prior to use in the experiments. The strong buffers maintained the pH of these antagonists when mixed with metabolites.
(§3) Imaging procedure: All experiments were performed at room temperature (20-25° C.) to allow correspondence with most previous experiments using calcium imaging and patch clamp of DRG neurons. Cells were imaged using the Meta Imaging Series Metafluor program (Universal Imaging Corp). All cells identifiable as neurons based on their round shape, clear, single nucleus, were selected from a phase image of the field. At the end of each experiment, 200 nM capsaicin was applied, followed by a wash, and then applied 50 mM KCl. Capsaicin activation indicated the presence of TRPV1 receptors on neurons, and KCl ensured that recorded objects were active neurons, and established the maximal calcium response in each neuron. For some neurons the administration of capsaicin abolished the potential for responding to KCl, thus either a response to capsaicin or to KCl indicated viability of neurons, and only viable neurons were included in analyses.
For each field an average of 151+10 cells were tracked real-time. […]

TRPV1 = TRPV1 (Homo sapiens, UniProt Q8NER1); conditions: cited from earlier work
ASIC2 = molecular target: T1, ASIC2 (Homo sapiens, UniProt Q16515); conditions: read-out: IC 50 for ASIC2; cited from earlier work
T1 sequence (Q16515 1-512): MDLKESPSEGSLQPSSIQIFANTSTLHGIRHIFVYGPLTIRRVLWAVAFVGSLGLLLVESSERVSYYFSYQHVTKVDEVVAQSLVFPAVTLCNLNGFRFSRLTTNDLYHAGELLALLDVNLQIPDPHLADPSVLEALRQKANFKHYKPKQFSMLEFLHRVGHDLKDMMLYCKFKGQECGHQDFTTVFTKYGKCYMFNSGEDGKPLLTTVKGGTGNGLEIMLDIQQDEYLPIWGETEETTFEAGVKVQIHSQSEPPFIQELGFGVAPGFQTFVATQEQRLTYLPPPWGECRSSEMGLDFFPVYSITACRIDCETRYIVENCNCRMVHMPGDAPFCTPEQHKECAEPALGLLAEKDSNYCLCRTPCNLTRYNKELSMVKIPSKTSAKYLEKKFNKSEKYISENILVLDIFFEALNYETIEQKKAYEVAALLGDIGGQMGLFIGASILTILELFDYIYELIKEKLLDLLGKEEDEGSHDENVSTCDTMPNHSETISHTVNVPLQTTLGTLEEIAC

ASIC3 = molecular target: T2, ASIC3 (Homo sapiens, UniProt Q9UHC3); conditions: cited from earlier work
T2 sequence (Q9UHC3 1-531): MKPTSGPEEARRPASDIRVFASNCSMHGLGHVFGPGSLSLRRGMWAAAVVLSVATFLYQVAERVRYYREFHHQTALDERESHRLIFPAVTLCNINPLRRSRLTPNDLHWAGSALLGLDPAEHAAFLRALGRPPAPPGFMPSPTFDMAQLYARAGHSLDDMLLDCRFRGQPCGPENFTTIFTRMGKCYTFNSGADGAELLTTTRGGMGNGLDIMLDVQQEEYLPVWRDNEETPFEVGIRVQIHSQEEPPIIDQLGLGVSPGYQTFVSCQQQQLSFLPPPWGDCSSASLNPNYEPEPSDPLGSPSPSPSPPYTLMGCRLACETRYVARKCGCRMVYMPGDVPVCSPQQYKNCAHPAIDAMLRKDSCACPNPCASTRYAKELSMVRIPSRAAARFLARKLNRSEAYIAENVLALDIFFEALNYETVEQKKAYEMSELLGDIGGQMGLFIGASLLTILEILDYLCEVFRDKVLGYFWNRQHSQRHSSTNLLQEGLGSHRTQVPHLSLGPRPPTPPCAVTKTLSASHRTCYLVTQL

DRG neurons [2] = experiment: Calcium imaging of cultured DRG neurons: antagonist effects on responses to increasing metabolites (protons, lactate, ATP); assay type: cell-based, mouse
Excerpt: as §1
Combinations of metabolites applied to mimic naturally occurring conditions: When applied in an escalating series to mimic increases in metabolites that occur with muscle exercise and ischemic muscle exercise, the metabolite values shown in Table 1 were used. The values associated with pH 7.6 are at or below those normally found at rest in the mouse. The values at 7.4 approximate those found at rest. Generally, the low metabolite values associated with pH higher than 7.0 are likely to be non-noxious, while higher metabolite values at pH 7.0 and lower may be associated with pain. These values should bracket the physiological range of metabolites found in skeletal muscle with the last two values (those associated with 6.4 and 6.2) being higher than the physiological range (Bangsbo et al., 1993; Bangsbo et al., 2001; Li et al., 2003; Li et al., 2005; Reeh and Kress, 2001; Steinhagen et al., 1976).
as §2, §3
For each field an average of 151+10 cells were tracked real-time. […] FIGS. 1 and 2 show traces from these graphs. […]

ASIC1 = molecular target: T3, ASIC1 (Homo sapiens, UniProt P78348); conditions: read-out: IC 50 for ASIC1; cited from earlier work
T3 sequence (P78348 1-528): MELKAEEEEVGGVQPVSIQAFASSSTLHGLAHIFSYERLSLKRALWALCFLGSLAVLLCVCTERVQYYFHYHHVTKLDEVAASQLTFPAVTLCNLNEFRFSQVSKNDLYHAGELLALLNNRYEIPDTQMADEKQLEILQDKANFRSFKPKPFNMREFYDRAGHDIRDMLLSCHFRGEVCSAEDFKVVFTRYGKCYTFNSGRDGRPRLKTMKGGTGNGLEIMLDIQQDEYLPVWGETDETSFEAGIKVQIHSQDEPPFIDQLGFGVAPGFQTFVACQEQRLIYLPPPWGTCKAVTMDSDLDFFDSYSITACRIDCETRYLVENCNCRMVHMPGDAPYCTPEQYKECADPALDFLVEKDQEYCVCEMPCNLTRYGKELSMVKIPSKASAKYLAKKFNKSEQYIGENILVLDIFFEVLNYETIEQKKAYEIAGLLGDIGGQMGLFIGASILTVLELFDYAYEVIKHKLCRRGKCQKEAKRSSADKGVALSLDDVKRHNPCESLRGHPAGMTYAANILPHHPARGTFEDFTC

TRPV1 receptors = TRPV1 receptors (Mus musculus, UniProt Q704Y3); conditions: cited from earlier work
ASIC receptor = conditions: cited from earlier work
mouse P2X4 receptors = molecular target: T4, mouse P2X4 receptors (Mus musculus, UniProt Q9JJX6); conditions: cited from earlier work
T4 sequence (Q9JJX6 1-388): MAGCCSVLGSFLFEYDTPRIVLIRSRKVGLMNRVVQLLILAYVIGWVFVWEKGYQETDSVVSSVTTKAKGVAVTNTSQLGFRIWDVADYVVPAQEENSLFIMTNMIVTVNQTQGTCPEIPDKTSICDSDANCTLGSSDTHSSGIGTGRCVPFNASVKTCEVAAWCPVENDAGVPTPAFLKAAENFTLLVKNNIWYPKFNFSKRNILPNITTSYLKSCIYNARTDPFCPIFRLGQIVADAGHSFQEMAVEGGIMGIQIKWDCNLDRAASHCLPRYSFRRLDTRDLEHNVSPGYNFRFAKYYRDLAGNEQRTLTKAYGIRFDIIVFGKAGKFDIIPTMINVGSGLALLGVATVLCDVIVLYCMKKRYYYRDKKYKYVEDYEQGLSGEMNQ

P2X3 receptors = molecular target: T5, P2X3 receptors (Homo sapiens, UniProt P56373); conditions: cited from earlier work
T5 sequence (P56373 1-397): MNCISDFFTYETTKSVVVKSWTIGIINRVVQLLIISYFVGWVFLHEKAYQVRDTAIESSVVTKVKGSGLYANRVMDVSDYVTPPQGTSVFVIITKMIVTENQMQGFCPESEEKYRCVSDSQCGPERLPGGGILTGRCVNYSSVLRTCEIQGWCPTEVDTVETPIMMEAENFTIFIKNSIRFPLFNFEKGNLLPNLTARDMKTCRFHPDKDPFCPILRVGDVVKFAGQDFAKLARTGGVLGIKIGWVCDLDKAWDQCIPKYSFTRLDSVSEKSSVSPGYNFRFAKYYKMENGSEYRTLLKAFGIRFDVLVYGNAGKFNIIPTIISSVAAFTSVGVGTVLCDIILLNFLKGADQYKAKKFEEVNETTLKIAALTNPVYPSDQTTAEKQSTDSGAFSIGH

P2X5 receptors = P2X5 receptors (Homo sapiens, UniProt Q93086); conditions: cited from earlier work
Sequence of P2X5 receptors (Q93086 whole entry): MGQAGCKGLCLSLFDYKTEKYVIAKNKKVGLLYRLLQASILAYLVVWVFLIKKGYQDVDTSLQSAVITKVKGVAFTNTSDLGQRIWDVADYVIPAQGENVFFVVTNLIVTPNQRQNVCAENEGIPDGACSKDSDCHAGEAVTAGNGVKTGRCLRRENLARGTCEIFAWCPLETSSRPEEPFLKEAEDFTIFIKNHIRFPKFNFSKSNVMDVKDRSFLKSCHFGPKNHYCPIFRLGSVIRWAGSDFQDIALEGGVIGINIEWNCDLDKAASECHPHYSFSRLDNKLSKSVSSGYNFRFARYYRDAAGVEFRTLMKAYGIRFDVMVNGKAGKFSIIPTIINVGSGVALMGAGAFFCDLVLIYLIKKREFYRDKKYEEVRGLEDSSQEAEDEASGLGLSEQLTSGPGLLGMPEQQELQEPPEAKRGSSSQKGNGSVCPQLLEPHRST

Sequence of TRPV1 receptors (Q704Y3 whole entry): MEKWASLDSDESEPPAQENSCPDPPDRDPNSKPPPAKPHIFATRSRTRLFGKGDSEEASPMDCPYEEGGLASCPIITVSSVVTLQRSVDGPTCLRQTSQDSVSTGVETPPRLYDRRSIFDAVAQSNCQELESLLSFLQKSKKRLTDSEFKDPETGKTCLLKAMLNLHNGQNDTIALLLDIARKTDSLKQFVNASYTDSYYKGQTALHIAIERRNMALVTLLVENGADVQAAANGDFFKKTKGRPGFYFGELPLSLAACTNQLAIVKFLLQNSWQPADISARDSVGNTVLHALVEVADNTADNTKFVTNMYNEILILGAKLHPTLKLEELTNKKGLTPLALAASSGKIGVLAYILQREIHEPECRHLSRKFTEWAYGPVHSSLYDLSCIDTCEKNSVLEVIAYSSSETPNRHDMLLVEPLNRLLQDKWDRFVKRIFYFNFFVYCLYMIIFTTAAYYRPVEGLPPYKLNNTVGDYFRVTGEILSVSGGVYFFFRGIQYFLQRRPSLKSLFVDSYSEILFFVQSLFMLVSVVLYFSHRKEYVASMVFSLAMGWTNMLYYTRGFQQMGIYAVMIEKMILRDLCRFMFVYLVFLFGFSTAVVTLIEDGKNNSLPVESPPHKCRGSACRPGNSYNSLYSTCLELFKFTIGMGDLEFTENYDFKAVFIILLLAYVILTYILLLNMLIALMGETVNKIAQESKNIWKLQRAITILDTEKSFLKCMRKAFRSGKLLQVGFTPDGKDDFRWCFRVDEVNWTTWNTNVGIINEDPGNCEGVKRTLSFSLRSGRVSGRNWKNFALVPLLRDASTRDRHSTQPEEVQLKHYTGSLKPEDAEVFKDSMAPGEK
Sequence of TRPV1 (Q8NER1 whole entry, species assumed): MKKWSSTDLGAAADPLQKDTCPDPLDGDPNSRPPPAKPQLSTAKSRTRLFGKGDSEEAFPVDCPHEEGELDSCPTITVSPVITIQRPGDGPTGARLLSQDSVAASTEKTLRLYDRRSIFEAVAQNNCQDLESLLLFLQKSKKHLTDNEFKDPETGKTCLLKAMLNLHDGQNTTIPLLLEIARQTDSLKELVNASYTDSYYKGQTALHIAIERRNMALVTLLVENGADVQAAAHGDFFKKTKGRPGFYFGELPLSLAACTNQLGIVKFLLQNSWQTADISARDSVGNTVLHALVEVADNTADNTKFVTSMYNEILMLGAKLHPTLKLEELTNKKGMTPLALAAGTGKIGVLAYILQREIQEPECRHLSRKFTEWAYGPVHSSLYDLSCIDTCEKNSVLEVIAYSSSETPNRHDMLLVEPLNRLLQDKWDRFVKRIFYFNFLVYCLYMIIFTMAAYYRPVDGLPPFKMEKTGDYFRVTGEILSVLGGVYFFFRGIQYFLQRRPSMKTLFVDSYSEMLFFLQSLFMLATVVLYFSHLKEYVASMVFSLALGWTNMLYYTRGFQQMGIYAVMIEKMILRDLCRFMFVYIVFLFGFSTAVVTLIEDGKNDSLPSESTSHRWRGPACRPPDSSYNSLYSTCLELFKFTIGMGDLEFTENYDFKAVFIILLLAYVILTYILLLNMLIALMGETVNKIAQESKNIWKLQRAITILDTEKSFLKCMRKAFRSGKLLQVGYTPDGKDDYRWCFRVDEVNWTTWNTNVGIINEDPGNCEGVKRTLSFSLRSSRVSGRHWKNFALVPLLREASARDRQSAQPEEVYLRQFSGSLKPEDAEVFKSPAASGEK

Molecule: Cc1ccc(CC(CNC(=S)NCc2ccc(NS(C)(=O)=O)c(F)c2)COC(=O)C(C)(C)C)cc1C (centres unmarked) [JYL-1433]
- responses to KCl application in presence of antagonist (DRG neurons [1]; antagonist 2 μM, 50 mM KCl): remained normal
- TRPV1 antagonism (TRPV1): potent full antagonists of TRPV1

Molecule: CC(C)C1c2cc(C3CC3c3ccc4cc(C(=N)N)ccc4c3)ccc2CCN1C (centres unmarked) [A-317567]
- effect on responses to capsaicin, ATP or KCl (DRG neurons [1]; any dose, applied for 10 minutes or less): caused no decrements in calcium responses evoked by capsaicin, ATP or KCl; also recorded: did not decrease responses to capsaicin, ATP, or KCl; also recorded: did not block DRG neuron capsaicin responses, KCl responses, or responses to 5 μM ATP
- effect on responses to capsaicin, ATP or KCl (DRG neurons [1]; applied for more than 20 minutes): caused some decrements in these responses
- IC50 (ASIC2): 9.1 µM
- IC50 (ASIC3; read-out: IC 50 for ASIC3): 9.5 µM
- DRG neuron responses to metabolites blocked (DRG neurons [2]; antagonist 100 μM, metabolites increased as high as pH 6.6, lactate 50 mM, ATP 5): ~80%
- responses to metabolites, % of the control level (DRG neurons [2]; antagonist 100 μM, p<0.0001): 23%
- effect on responses to metabolites (DRG neurons [2]; antagonist 200 μM): blocked all responses to metabolites
- IC50 (ASIC1): 2000 nM

Molecule: Oc1cc2c(cc1O)CN(C(=S)NCCc1ccc(Cl)cc1)CCC2 [Capsazepine]
- inhibitory action on pH responses of TRPV1 receptors (TRPV1 receptors): little inhibitory action

Molecule: N=C(N)NC(=O)c1nc(Cl)c(N)nc1N [Amiloride]
- effect on ASIC3 responses to moderate pH levels (ASIC3; pH 7.0): enhanced
- effect on ASIC receptor responses to low pH (ASIC receptor): antagonizes all ASIC receptor responses to low pH

Molecule: TNP-ATP
- IC50 (mouse P2X4 receptors): 16 µM
- capsaicin and KCl responses in presence of antagonist (DRG neurons [1]; any dose): unaffected
- IC50 (P2X3 receptors): 0.31 nM and 0.3 nM
- effect on responses to increasing metabolites (DRG neurons [2]; antagonist 10 nM): facilitated responses; also recorded: can increase responses of DRG neurons to increasing metabolites
- effect on responses to increasing metabolites (DRG neurons [2]; antagonist 200 μM): blocked nearly all responses to metabolites; also recorded: abolished most responses to increasing metabolites
- effect on metabolite responses associated with pH 6.8 and above (DRG neurons [2]; antagonist 1 and 10 μM): had little effect
- effect on responses to low metabolites (DRG neurons [2]; antagonist 1 and 10 μM (FIG. 2 legend: 1 μM), metabolites between pH 7.3-7.0): reduced low metabolite responses; also recorded: reduced responses of DRG neurons; also recorded: eliminated most responses to low metabolites
- effect on responses to increasing metabolites (DRG neurons [2]; antagonist 200-300 μM, doses effective at all P2X receptors): eliminated nearly all responses to increasing metabolites
- effect on responses to metabolites (DRG neurons [2]; antagonist at 10 μM (so in the source), p<0.05): increased responses to metabolites
- IC50 (P2X5 receptors): 500 nM
